What was measured:
[1] = tested on: colorectal cancer xenografts with RSPO3 translocations; parameters: method as in PMID 26257057; details: cited from earlier work
HPAF-II cells = assay: In vitro glucose uptake; type: cell-based, human; details: Latrunculin A 500 nmol/L, 48 hours
Protocol: (§1) SNU-1411, HPAF-II, and HCT116 cells were treated in vitro for 48 hours with RXC004 (100 nmol/L), Latrunculin A (Abcam #ab144290; 500 nmol/L), or DMSO prior to analysis using the Glucose Uptake Glo Assay Kit (Promega #J1341). The ATPlite assay was used to control for cell viability, confirming RXC004 has no effect on proliferation at this 48 hours timepoint.

SNU-1411 cells = assay: In vitro glucose uptake; type: cell-based, human; details: SNU-1411, Latrunculin A 500 nmol/L, 48 hours
Protocol: as §1

HCT116 cells = assay: In vitro glucose uptake; type: cell-based, human; details: HCT116, Latrunculin A 500 nmol/L, 48 hours
Protocol: as §1

| Structure (SMILES) | duration of tumor regrowth suppression after withdrawal of treatment [1] | glucose uptake (HPAF-II cells) | glucose uptake (SNU-1411 cells) | glucose uptake (HCT116 cells) |
| --- | --- | --- | --- | --- |
| Cn1c(=O)c2c(ncn2CC(=O)Nc2ccc(-c3ccccc3)nn2)n(C)c1=O [ETC-159] | up to 6 weeks |  |  |  |
| C/C1=C/C(=O)O[C@@H]2C[C@@H](CC[C@H](C)/C=C\C=C\CC1)O[C@@](O)([C@@H]1CSC(=O)N1)C2 [Latrunculin A, reference compound] |  | blocked glucose uptake | blocked glucose uptake | blocked glucose uptake |

— publication PMC10010340, “The Wnt Pathway Inhibitor RXC004 Blocks Tumor Growth and Reverses Immune Evasion in Wnt Ligand–dependent Cancer Models” (Cancer Research Communications, 2022)
